The nature of data set [1]: Cytotoxicity MTT assay in HeLa cells. It counts as cell-based. Particulars: human, tetrazolium assay, read-out: CC50 (95% CL). On the procedure: (§1) The cytotoxicity of the test materials to two human cell lines was evaluated using an MTT assay described previously by Morgan. In brief, a 10× stock solution of MTT was prepared by adding 5 mg/mL MTT in phosphate-buffered saline (PBS) (pH 7.4). The stock solution was sterile-filtered and stored at −20°C. HeLa and MRC5 cells were seeded onto 96-well culture plates at a density of 3 × 10^4 cells per well for 1 day. The culture medium was removed and the plates with monolayer cells were replaced with media containing several different concentrations (1–1000 μg/mL) of the test materials in dimethylsulfoxide (DMSO). After incubation at 37°C and 5% CO2 for 2 days, the culture plates were then washed once with 200 μL PBS. A volume of 100 μL medium containing 0.05% MTT were added to each well and then incubated for 4 h at the same condition. After then, MTT solution was removed and 150 μL DMSO was added to each well. Finally, the plate was shaken for 15 min to dissolve the purple formazan crystals that had formed. Absorbance was read at 560 nm by using a VersaMax microplate reader (Molecular Devices, Sunnyvale, CA) with a reference absorbance at 670 nm.
(§2) The CC50 and IC50 values were determined using GraphPad Prism 5 software program (GraphPad Software, La Jolla, CA). […] The selectivity index (SI) was determined as the ratio of CC50 to IC50 [23]. All data represent the mean ± SD of duplicate or triplicate samples of three independent experiments. […] Data from two groups were analyzed by a Student’s t-test, and multiple groups were analyzed by a one-way analysis of variance and Bonferroni multiple comparison post-test.

The nature of data set [2]: Cytotoxicity MTT assay in MRC5 cells. It counts as cell-based, human. Particulars: human, tetrazolium assay, read-out: CC50 (95% CL). How it is done: as §1, §2
(In general: Formazan colour is commonly taken as a measure of viable cells.)

The test system of another data set is HRV-2. The data set can be described thus: Cytopathic effect inhibition assay (MTT), HRV-2 in MRC5 cells. Particulars: read-out: IC50 (95% CL) HRV-2. The class given is cell-based, human rhinovirus. On the procedure: (§3) Monolayers of HeLa and MRC5 cells were seeded onto a 96-well culture plate as stated previously. Subsequently, 90 μL media containing several different concentrations (1–1000 μg/mL) of each test material in DMSO was put into the wells, and then 10 μL of 10×TCID50 of the virus stock was added to produce an appropriate CPE within 2 days after infection. Ribavirin served as a reference control and was similarly prepared. Negative controls consisted of the DMSO solution. Viral inhibition rate (VIR) (%) was calculated according to the formula [21], VIR = (A tV—A cV)/(A cd—A cV) × 100, where A tV is the optical density measured with a given concentration of the test compound in HRV infected cells; A cV is the optical density measured for the control untreated HRV infected cells; A cd is the optical density measured for the control untreated HRV uninfected cells.
(§4) The CC50 and IC50 values were determined using GraphPad Prism 5 software program (GraphPad Software, La Jolla, CA). […] The selectivity index (SI) was determined as the ratio of CC50 to IC50 [23]. All data represent the mean ± SD of duplicate or triplicate samples of three independent experiments. Statistical analyses were carried out using SAS 9.13 program (SAS Institute, Cary, NC). Data from two groups were analyzed by a Student’s t-test, and multiple groups were analyzed by a one-way analysis of variance and Bonferroni multiple comparison post-test.

In a further data set the test system is HRV-4. The data set can be described thus: Cytopathic effect inhibition assay (MTT), HRV-4 in MRC5 cells. It counts as cell-based, human rhinovirus. The conditions noted are these: read-out: IC50 (95% CL) HRV-4. On the procedure: as §3, §4
In general terms: Protection from cytopathic effect is a common read-out in antiviral testing.

The test system of a further data set is HRV-4 particles. Description: Infectivity of HRV-4 particles (preincubation of virus). It counts as cell-based, human rhinovirus. Particulars: MRC5 cells, 2 days; for inhibition at 100 µg/mL / inhibition at 20 µg/mL: Human rhinovirus sp. On the procedure:
The effects of the test compounds on the infectivity of HRV-4 particles were elucidated as described previously by Choi et al.. […] HRV-4 was preincubated with 100 μg/mL PA, 20 μg/mL PGG, or 100 μg/mL ribavirin for 1 h at 4°C. Monolayers of MRC5 cells were infected with the pretreated or untreated HRV-4 for 1 h at 37°C. Unbound virus was removed by washing the wells with PBS twice, and then cells were incubated in fresh medium supplemented with or without test compounds at 37°C. After 2 days, MTT test and antiviral activity were carried out as stated previously.

The test system of another data set is TNF. The data set can be described thus: TNF mRNA expression, qRT-PCR in MRC5. The class given is cell-based, human. Particulars: MRC5, 2 days; 100 μg/mL PA, 20 μg/mL PGG; vs untreated cells. On the procedure:
To evaluate the level of gene expression, real-time qRT-PCR with SYBR Green dye was carried out. HRV-2 or HRV-4 infected and noninfected cultures of MRC5 monolayers grown in 25 cm^2 cell culture flasks (Corning, NY) were treated with 100 μg/mL PA or 20 μg/mL PGG. After incubation at 37°C and 5% CO2 for 2 days, total RNA was extracted from the culture cells using the RNeasy Plus Mini Kit (Qiagen, Hilden, Germany) according to the manufacturer’s instructions. Contaminated genomic DNA was removed using RQ1 RNase-free DNase (Promega, Madison, WI). Complementary DNA (cDNA) was synthesized using 1 μg total RNA through a reverse transcription reaction using the SuperScript First-Strand Synthesis Kit (Invitrogen, Carlsbad, CA). […] The PCR conditions were as follows: 50°C for 2 min, 95°C for 10 min, and then 50 cycles of 95°C for 15 s and either 60°C [β2-microglobulin (B2M), interleukin (IL)-6, IL-8, LDLR, ICAM-1, HRV-2, and HRV-4] or 58°C (B2M and IL-1β) or 55°C [B2M, Toll-like receptor 3 (TLR3), tumor necrosis factor (TNF), and interferon beta (IFNβ)] for 30 s. mRNA expression level of target gene was normalized to mRNA expression level for the housekeeping gene B2M and analyzed by the 2^–ΔΔCT method using StepOne Software v2.1 and DataAssist Software (Applied Biosystems). […]
On the technique in general: In qPCR the cycle at which signal appears reflects the starting amount.

The mark [3] stands for this setting: Rhinovirus A, HRV2, MRC5, HRV-2 in MRC5 cells.
[4] abbreviates: Human rhinovirus sp., HRV4, MRC5, HRV-4 in MRC5 cells.
Where [5] appears, read: HRV4, 48 h, 100 μg/mL PA, 20 μg/mL PGG, 100 μg/mL ribavirin, read-out: inhibition rate, continuous presence during infection.
[6] abbreviates: HRV4, virus preincubated 1 h at 4°C with 100 μg/mL PA, 20 μg/mL PGG or 100 μg/mL ribavirin, read-out: inhibition rate, preincubation of HRV-4 particles.

Molecules are shown by their SMILES. pIC50: −log10 of the molar value. Read-outs that look alike come from different tables or passages of the source.

Regarding `COc1ccc(C(C)=O)c(O)c1` [PA, paeonol], the CC50 at 2 days in data set [1] worked out at 3160 µM; in data set [2], 3140 µM. Further, the pIC50 with HRV-2 (HRV-2 in MRC5 cells) was 3.30; in the data set on HRV-2 (setting [3]) it was 3.30; in the data set on HRV-4 (HRV-4 in MRC5 cells), 3.31; in the data set on HRV-4 (setting [4]), 3.31. In addition, the inhibition at 100 µg/mL in the data set on HRV-4 particles (setting [5]) was 57.2%; in the data set with HRV-4 particles (setting [6]), 10.6%. Besides, the “effect on TNF mRNA expression” value in the data set on TNF was “did not remarkably reduce”.

As for `O=C(OC[C@H]1O[C@@H](OC(=O)c2cc(O)c(O)c(O)c2)[C@H](OC(=O)c2cc(O)c(O)c(O)c2)[C@@H](OC(=O)c2cc(O)c(O)c(O)c2)[C@@H]1OC(=O)c1cc(O)c(O)c(O)c1)c1cc(O)c(O)c(O)c1` [PGG, 1,2,3,4,6-penta-O-galloyl-β-D-glucopyranose], the CC50 at 2 days is 109 µM in data set [1] and 108 µM in data set [2]. Also, the pIC50 in the data set on HRV-2 (HRV-2 in MRC5 cells) was 4.75; in the data set with HRV-2 (setting [3]), 4.75; in the data set on HRV-4 (HRV-4 in MRC5 cells), 4.76; in the data set with HRV-4 (setting [4]), 4.76. Moreover, the inhibition at 20 µg/mL with HRV-4 particles (setting [5]) came out at 54.5%; with HRV-4 particles (setting [6]), 11.2%. Besides, the “effect on TNF mRNA expression” value in the data set on TNF is reported as “did not remarkably reduce”.

Regarding `NC(=O)c1ncn([C@@H]2O[C@H](CO)[C@@H](O)[C@H]2O)n1` [Ribavirin, reference compound], the CC50 at 2 days is 2340 µM in data set [1] and 2230 µM in data set [2]. Further, the pIC50 in the data set with HRV-2 (HRV-2 in MRC5 cells) is 3.62; in the data set with HRV-2 (setting [3]), 3.62; with HRV-4 (setting [4]), 3.51. For the same molecule, the inhibition at 100 µg/mL with HRV-4 particles (setting [5]) amounted to 58.2%. Also, the “inhibition rate, preincubation of HRV-4 particles” value with HRV-4 particles (virus preincubated 1 h at 4°C with 100 μg/mL PA, 20 μg/mL PGG or 100 μg/mL ribavirin) came to 10.0%.

One may read the CC50 as the concentration giving 50% cytotoxicity. The pIC50 is the negative decadic logarithm of the IC50, by convention in mol/L. Broadly, the inhibition is the drop in the measured response relative to a control, in per cent.
